Biological target: T1, recombinant human Muscarinic M1 receptor (Homo sapiens, UniProt P11229)
T1 sequence (P11229 1-460): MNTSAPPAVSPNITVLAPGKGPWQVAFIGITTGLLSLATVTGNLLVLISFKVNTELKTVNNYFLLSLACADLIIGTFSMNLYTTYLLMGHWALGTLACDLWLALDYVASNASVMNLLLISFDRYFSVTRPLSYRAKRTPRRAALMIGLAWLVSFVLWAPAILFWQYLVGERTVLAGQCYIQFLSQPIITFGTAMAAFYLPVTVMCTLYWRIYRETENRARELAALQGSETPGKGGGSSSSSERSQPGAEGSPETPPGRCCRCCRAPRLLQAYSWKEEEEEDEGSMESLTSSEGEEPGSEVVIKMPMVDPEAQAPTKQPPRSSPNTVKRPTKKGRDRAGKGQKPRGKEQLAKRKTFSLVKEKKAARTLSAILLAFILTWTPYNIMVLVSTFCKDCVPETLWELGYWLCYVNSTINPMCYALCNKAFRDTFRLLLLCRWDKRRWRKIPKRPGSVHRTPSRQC
Assay: Allosteric potency EC50 for Muscarinic M1 receptor, CHO pCRE-Luc reporter cell-based assay with EC20 of acetylcholine
Details: CHO cells, human M1, luciferase reporter, in presence of EC20 of acetylcholine, 4 h
Experimental: Determination of allosteric potency EC50 values for Muscarinic M1 receptor:
A stable CHO cell line expressing recombinant human Muscarinic M1 receptor and pCRE-Luc reporter system was used for cell-based assay. The assay offers a non-radioactive based approach to determine binding of a compound to GPCRs. In this specific assay, the level of intracellular cyclic AMP which is modulated by activation or inhibition of the receptor is measured. The recombinant cells harbor luciferase reporter gene under the control of cAMP response element.
The above cells were grown in 96 well clear bottom white plates in Hams F12 medium containing 10% fetal bovine serum (FBS). Prior to the addition of compounds or standard agonist, cells were serum starved overnight. Increasing concentrations of test compounds were added along with EC20 of acetylcholine in OptiMEM medium to the cells. The incubation was continued at 37° C. in CO2 incubator for 4 h. Medium was removed and cells were washed with phosphate buffered saline. The cells were lysed and luciferase activity was measured in a Luminometer. Luminescence counts in each concentrations of test item were normalized to the acetylcholine induced maximum response and the data was analyzed using Graphpad software. EC50 values of the compounds were defined as the concentration required in stimulating the luciferase activity by 50% in presence of EC20 of acetylcholine.

EC50	SMILES
1060 nM	Cc1c(Cc2ccc(-c3cnn(C)c3)cc2F)cc(C(=O)N[C@@H]2CCCC[C@H]2O)c2c1ncn2C [Example 41, N-(cis-1S,2S-2-Hydroxycyclohexyl)-3,7-dimethyl-6-[2-fluoro-4-(1-methyl-1H-pyrazol-4-yl)-benzyl]-3H-benzimidazole-4-carboxamide]
1240 nM	Cc1c(Cc2ccc(Cl)nc2)cc(C(=O)NC2CCOC[C@@H]2O)c2ncccc12 (stereo partly drawn) [Example 3, N-(cis-3S,4S-3-Hydroxytetrahydropyran-4-yl)-6-(2-chloropyridin-5-ylmethyl)-5-methylquinoline-8-carboxamide]
1460 nM	Cc1c(Cc2ccc(-c3cnn(C)c3)c(F)c2F)cc(C(=O)N[C@@H]2CCCC[C@H]2O)c2c1ncn2C [Example 43, N-(cis-1S,2S-2-Hydroxycyclohexyl)-3,7-dimethyl-6-[2,3-difluoro-4-(1-methyl-1H-pyrazol-4-yl)-benzyl]-3H-benzimidazole-4-carboxamide]
1500 nM	Cc1nc2c(C(=O)N[C@H]3CCCC[C@@H]3O)cc(Cc3ccc(-c4cscn4)cc3)c(C)c2[nH]1 [Example 40, N-(cis-1S,2S-2-Hydroxycyclohexyl)-2,7-dimethyl-6-(4-thiazol-4-yl-benzyl)-1H-benzimidazole-4-carboxamide]
232 nM	Cc1c(Cc2ccc(-c3cnn(C)c3)nc2)cc(C(=O)N[C@H]2CCCC[C@@H]2O)c2ncccc12 [Example 7, N-(cis-1S,2S-2-Hydroxycyclohexyl)-6-[2-(1-methyl-1H-pyrazol-4-yl)-pyridin-5-ylmethyl]-5-methylquinoline-8-carboxamide]
299 nM	Cc1cc2c(C)c(Cc3ccc(-c4cnn(C)c4)cc3)cc(C(=O)N[C@H]3CCCC[C@@H]3O)c2o1 [Example 46, N-(cis-1S,2S-2-Hydroxycyclohexyl)-2,4-dimethyl-5-[4-(1-methyl-1H-pyrazol-4-yl)-benzyl]-benzofuran-7-carboxamide]
258 nM	Cc1c(Cc2ccc(-c3cscn3)cc2)cc(C(=O)N[C@H]2CCCC[C@@H]2O)c2ncccc12 [Example 12, N-(cis-1S,2S-2-Hydroxycyclohexyl)-6-(4-thiazol-4-yl-benzyl)-5-methylquinoline-8-carboxamide]
465 nM	Cc1c(Cc2ccc(-c3cnn(C)c3)c(F)c2F)cc(C(=O)N[C@H]2CCCC[C@@H]2O)c2[nH]cnc12 [Example 36, N-(cis-1S,2S-2-Hydroxycyclohexyl)-7-methyl-6-[2,3-difluoro-4-(1-methyl-1H-pyrazol-4-yl)-benzyl]-1H-benzimidazole-4-carboxamide]
10000 nM	Cc1c(Cc2ccc(-c3cscn3)cc2)cc(C(=O)N[C@@H]2CCCC[C@H]2O)c2c1ncn2C [Example 45, N-(cis-1S,2S-2-Hydroxycyclohexyl)-3,7-dimethyl-6-[4-(thiazol-4-yl)-benzyl]-3H-benzimidazole-4-carboxamide]
2340 nM	Cc1c(Cc2ccccc2F)cc(C(=O)N[C@H]2CCCC[C@@H]2O)c2ncccc12 [Example 5, N-(cis-1S,2S-2-Hydroxycyclohexyl)-6-(2-fluorobenzyl)-5-methylquinoline-8-carboxamide]
1050 nM	Cn1cc(-c2ccc(Cc3cc(C(=O)N[C@H]4CCCC[C@@H]4O)c4nccn4c3)c(F)c2F)cn1 [Example 21, N-(cis-1S,2S-2-Hydroxycyclohexyl)-6-[2,3-difluoro-4-(1-methyl-1H-pyrazol-4-yl)-benzyl]-imidazo[1,2-a]pyridine-8-carboxamide]
960 nM	Cc1c(Cc2ccnc(F)c2)cc(C(=O)N[C@H]2CCCC[C@@H]2O)c2ncccc12 [Example 4, N-(cis-1S,2S-2-Hydroxycyclohexyl)-6-(2-fluoropyridin-4-ylmethyl)-5-methylquinoline-8-carboxamide]
28 nM	Cc1c(Cc2ccc(-c3cnn(C)c3)cc2F)cc(C(=O)N[C@H]2CCCC[C@@H]2O)c2nccn12 [Example 20, N-(cis-1S,2S-2-Hydroxycyclohexyl)-5-methyl-6-[2-fluoro-4-(1-methyl-1H-pyrazol-4-yl)-benzyl]-imidazo[1,2-a]pyridine-8-carboxamide]
798 nM	Cc1c(Cc2ccc(-c3cnn(C)c3)cc2)cc(C(=O)N[C@H]2CCCC[C@@H]2O)c2c1NCCO2 [Example 16, N-(cis-1S,2S-2-Hydroxycyclohexyl)-6-[4-(1-methyl-1H-pyrazol-4-yl)-benzyl]-5-methyl-3,4-dihydro-2H-benzo[1,4]oxazine-8-carboxamide]
248 nM	Cc1c(Cc2ccc(-c3cnn(C)c3)cc2)cc(C(=O)N[C@H]2CCCC[C@@H]2O)c2nccn12 [Example 18, N-(cis-1S,2S-2-Hydroxycyclohexyl)-5-methyl-6-[4-(1-methyl-1H-pyrazol-4-yl)-benzyl]-imidazo[1,2-a]pyridine-8-carboxamide]
3910 nM	O=C(N[C@H]1CCCC[C@@H]1O)c1cc(Cc2ccc(-c3ccccc3)cc2)cn2ccnc12 [Example 24, N-(cis-1S,2S-2-Hydroxycyclohexyl)-6-(4-phenyl-benzyl)-imidazo[1,2-a]pyridine-8-carboxamide]
357 nM	Cc1c(Cc2ccc(-n3cccn3)cc2)cc(C(=O)N[C@H]2CCCC[C@@H]2O)c2nc[nH]c12 [Example 27, N-(cis-1S,2S-2-Hydroxycyclohexyl)-7-methyl-6-(4-pyrazol-1-yl-benzyl)-1H-benzimidazole-4-carboxamide]
2280 nM	Cc1c(Cc2ccc(F)c(F)c2)cc(C(=O)N[C@@H]2CCCC[C@H]2O)c2nc[nH]c12 [Example 34, N-(cis-1S,2S-2-Hydroxycyclohexyl)-7-methyl-6-[3,4-difluorobenzyl]-1H-benzimidazole-4-carboxamide]
3660 nM	Cc1c(Cc2cccc(F)c2F)cc(C(=O)N[C@@H]2CCCC[C@H]2O)c2nc[nH]c12 [Example 33, N-(cis-1S,2S-2-Hydroxycyclohexyl)-7-methyl-6-[2,3-difluorobenzyl]-1H-benzimidazole-4-carboxamide]
208 nM	Cc1c(Cc2ccc(-c3cnn(C)c3)nc2)cc(C(=O)N[C@@H]2CCCC[C@H]2O)c2c1ncn2C [Example 44, N-(cis-1S,2S-2-Hydroxycyclohexyl)-3,7-dimethyl-6-[6-(1-methyl-1H-pyrazol-4-yl)-pyridin-3-ylmethyl]-3H-benzimidazole-4-carboxamide]
237 nM	Cc1c(Cc2ccc(-c3cnn(C)c3)nc2)cc(C(=O)N[C@@H]2CCCC[C@H]2O)c2nc[nH]c12 [Example 35, N-(cis-1S,2S-2-Hydroxycyclohexyl)-7-methyl-6-[6-(1-methyl-1H-pyrazol-4-yl)-pyridin-3-ylmethyl]-1H-benzimidazole-4-carboxamide]
516 nM	Cc1c(Cc2ccc(-c3cscn3)cc2)cc(C(=O)N[C@@H]2CCCC[C@H]2O)c2nc[nH]c12 [Example 32, N-(cis-1S,2S-2-Hydroxycyclohexyl)-7-methyl-6-[4-(thiazol-4-yl)-benzyl]-1H-benzimidazole-4-carboxamide]
308 nM	O=C(N[C@H]1CCCC[C@@H]1O)c1cc(Cc2ccc(-c3cscn3)cc2)cn2ccnc12 [Example 23, N-(cis-1S,2S-2-Hydroxycyclohexyl)-6-(4-thiazol-4-yl-benzyl)-imidazo[1,2-a]pyridine-8-carboxamide]
3340 nM	Cn1cc(-c2ccc(Cc3cc(C(=O)N[C@H]4CCCC[C@@H]4O)c4nccn4c3)c(F)c2)cn1 [Example 26, N-(cis-1S,2S-2-Hydroxycyclohexyl)-6-[2-fluoro-4-(1-methyl-1H-pyrazol-4-yl)-benzyl]-imidazo[1,2-a]pyridine-8-carboxamide]

Source: patent US11278530B2, “Polycyclic amides as muscarinic M1 receptor positive allosteric modulators” (SUVEN LIFE SCIENCES LIMITED, priority 2017, dated 2022)
